Tests used:
[1] = tested on: CLL68 chronic lymphocytic leukemia cells; settings: read-out: IC50 (CLL68); primary patient cells, 24 h
Text: (§5) For chronic lymphocytic leukemia, mononuclear cells were isolated from peripheral blood using a Ficoll gradient (GE Healthcare). Primary cells from other lymphoma entities were isolated as previously described [80]. All cells were cryopreserved after isolation and thawed as previously described [81].
(§6) The resazurin reduction assay, which is also known as AlamarBlue® assay, was used for the determination of cell viability in all cytotoxicity determinations shown in the present work, as previously described [22]. Briefly, cells were seeded at a specific density depending on the incubation time (24 h: 1 × 10^6 cells/ml) in a 96-well plate and incubated with increasing compound concentrations (0.01–30 µM). After the specified treatment time, resazurin (Sigma, #R7017) was added to a final concentration of 40 µM. […] The viability of control cells was set to 100% and all other values were normalized to the control condition, the dose-response curves were then fitted with Prism v7.01 (GraphPad software, La Jolla, CA, USA).

[2] = tested on: FL169 follicular lymphoma cells; settings: read-out: IC50 (FL169); primary patient cells, 24 h
Text: as §5, §6

[3] = tested on: FL100 follicular lymphoma cells; settings: read-out: IC50 (FL100); primary patient cells, 24 h
Text: as §5, §6

[4] = tested on: 335 wild-type protein kinases; assay: kinome screen, selectivity score; type: biochemical
Procedure: (§1) The Kinome Screening was performed by Reaction Biology Europe GmbH (http://reactionbiology.com; Freiburg i. Br., Germany). […] A kinase inhibition profile of the three meriolins was determined by measuring residual activity at two concentrations each in single values in 335 wild-type protein kinase assays.
The selectivity score was calculated as: SelectivityScore=Countofdatapoints<50%/(Totalnumberofdatapoints)

PBK = molecular target: T1, PBK (Homo sapiens, UniProt Q96KB5); assay: kinome screen (33PanQinase); type: biochemical
T1 construct: purchased Reaction Biology Europe GmbH (formerly ProQinase)
T1 sequence (Q96KB5 1-322): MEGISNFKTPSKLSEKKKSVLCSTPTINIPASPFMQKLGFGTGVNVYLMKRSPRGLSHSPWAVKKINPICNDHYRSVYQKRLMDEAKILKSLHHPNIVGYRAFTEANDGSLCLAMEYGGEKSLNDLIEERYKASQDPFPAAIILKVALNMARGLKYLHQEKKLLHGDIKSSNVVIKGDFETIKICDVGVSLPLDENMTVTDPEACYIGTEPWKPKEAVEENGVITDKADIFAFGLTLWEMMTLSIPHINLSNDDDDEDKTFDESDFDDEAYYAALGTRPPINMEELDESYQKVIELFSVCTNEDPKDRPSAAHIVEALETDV
Procedure: (§2) The Kinome Screening was performed by Reaction Biology Europe GmbH (http://reactionbiology.com; Freiburg i. Br., Germany).

TLK2 = molecular target: T2, TLK2 (Homo sapiens, UniProt Q86UE8); assay: kinome screen (33PanQinase); type: biochemical
T2 construct: purchased Reaction Biology Europe GmbH (formerly ProQinase)
T2 sequence (Q86UE8 whole entry): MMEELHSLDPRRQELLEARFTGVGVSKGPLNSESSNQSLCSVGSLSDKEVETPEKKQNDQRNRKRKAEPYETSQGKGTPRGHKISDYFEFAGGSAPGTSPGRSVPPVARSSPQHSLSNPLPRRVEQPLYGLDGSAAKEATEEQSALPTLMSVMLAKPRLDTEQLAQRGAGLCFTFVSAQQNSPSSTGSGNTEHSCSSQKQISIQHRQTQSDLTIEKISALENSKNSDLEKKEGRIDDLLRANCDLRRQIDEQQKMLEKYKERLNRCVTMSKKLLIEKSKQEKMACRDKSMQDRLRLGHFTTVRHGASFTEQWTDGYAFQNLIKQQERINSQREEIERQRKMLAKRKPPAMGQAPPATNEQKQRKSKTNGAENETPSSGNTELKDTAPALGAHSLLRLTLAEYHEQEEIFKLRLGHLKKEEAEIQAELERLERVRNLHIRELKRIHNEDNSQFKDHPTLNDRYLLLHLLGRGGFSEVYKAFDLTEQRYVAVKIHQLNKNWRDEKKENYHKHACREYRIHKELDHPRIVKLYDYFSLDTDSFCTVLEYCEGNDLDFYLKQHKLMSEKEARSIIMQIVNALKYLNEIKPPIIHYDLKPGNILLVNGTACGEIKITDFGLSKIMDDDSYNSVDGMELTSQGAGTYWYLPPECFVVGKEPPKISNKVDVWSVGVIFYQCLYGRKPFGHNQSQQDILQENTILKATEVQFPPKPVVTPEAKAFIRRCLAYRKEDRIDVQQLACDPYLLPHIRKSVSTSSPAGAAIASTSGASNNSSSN
Procedure: as §2

HL60 = settings: read-out: IC50 (HL60); cytotoxicity, 24 h
Procedure: (§7) The resazurin reduction assay, which is also known as AlamarBlue® assay, was used for the determination of cell viability in all cytotoxicity determinations shown in the present work, as previously described [22]. Briefly, cells were seeded at a specific density depending on the incubation time (24 h: 1 × 10^6 cells/ml) in a 96-well plate and incubated with increasing compound concentrations (0.01–30 µM). After the specified treatment time, resazurin (Sigma, #R7017) was added to a final concentration of 40 µM. […] The viability of control cells was set to 100% and all other values were normalized to the control condition, the dose-response curves were then fitted with Prism v7.01 (GraphPad software, La Jolla, CA, USA). The reduction of resazurin to resorufin is proportional to aerobic respiration; therefore, it is used as a measure for the cell viability and cytotoxicity of a tested compound.

Jurkat = settings: read-out: IC50 (Jurkat); cytotoxicity, 24 h
Procedure: as §7

[5] = tested on: retinoblastoma (RB) protein phosphorylation; assay: immunoblotting of phospho-RB in Ramos cells; type: cell-based, human; settings: for phosphorylation of RB at p-Ser249 and p-Thr252: 0.1 or 1 µM (R547 1 µM)
Procedure: (§3) Cells were seeded at a density of 2 × 10^6 cells, treated as specified and harvested by centrifugation at 3000 rpm for 5 min, followed by freezing in liquid nitrogen. The cell pellets were thawed on ice and quick-frozen and defrozen in liquid nitrogen for three times, then lysed on ice in lysis buffer (20 mM Tris-HCl, 150 mM NaCl, 1% v/v Triton X-100, 0.5 mM EDTA, 10 mM NaF, 2.5 mM Na4P2O7, protease inhibitor (Sigma, #P2714)) for 30 min, accompanied by vortexing. Subsequently, centrifugation 13,300 rpm for 15 min purified cell lysates from cell debris. The supernatant was transferred to a new tube and the protein concentration was determined by Bradford assay. The samples were diluted with sample buffer. SDS-Page and Western Blot were conducted in accordance with standard workflows. […] The antibody baths were stored at 4 °C and re-used.
(§4) The density of the individual protein band was determined using Image Studio^TM Lite Version 5.2. The density of each protein was divided by the average of all bands of this protein. The ratios of the protein of interest were normalized to the ratio of the respective loading control. To determine the fold change, each normalized ratio was divided by the normalized band of the control line (untreated cells). Fold change is 1 for the control line, n ≥ 2. The results are shown as mean ± standard deviation and were visualized with GraphPad Prism 7.

[6] = tested on: FL303 follicular lymphoma cells; settings: read-out: IC50 (FL303); primary patient cells, 24 h
Text: as §5, §7

[7] = tested on: RNA polymerase II phosphorylation at Ser2; assay: immunoblotting of p-Ser2 RNA polymerase II in Ramos cells; type: cell-based, human; settings: 0.1 and 1 µM (R547 1 µM), 4-24 h
Procedure: as §3, §4

KOPTK1 = settings: read-out: IC50 (KOPTK1); cytotoxicity, 24 h
Procedure: as §7

MOLT4 = settings: read-out: IC50 (MOLT4); cytotoxicity, 24 h
Procedure: as §7

HPBALL = settings: read-out: IC50 (HPBALL); cytotoxicity, 24 h
Procedure: as §7

DYRK4 = molecular target: T3, DYRK4 (Homo sapiens, UniProt Q9NR20); assay: kinome screen (33PanQinase); type: biochemical
T3 construct: purchased Reaction Biology Europe GmbH (formerly ProQinase)
T3 sequence (Q9NR20 1-520): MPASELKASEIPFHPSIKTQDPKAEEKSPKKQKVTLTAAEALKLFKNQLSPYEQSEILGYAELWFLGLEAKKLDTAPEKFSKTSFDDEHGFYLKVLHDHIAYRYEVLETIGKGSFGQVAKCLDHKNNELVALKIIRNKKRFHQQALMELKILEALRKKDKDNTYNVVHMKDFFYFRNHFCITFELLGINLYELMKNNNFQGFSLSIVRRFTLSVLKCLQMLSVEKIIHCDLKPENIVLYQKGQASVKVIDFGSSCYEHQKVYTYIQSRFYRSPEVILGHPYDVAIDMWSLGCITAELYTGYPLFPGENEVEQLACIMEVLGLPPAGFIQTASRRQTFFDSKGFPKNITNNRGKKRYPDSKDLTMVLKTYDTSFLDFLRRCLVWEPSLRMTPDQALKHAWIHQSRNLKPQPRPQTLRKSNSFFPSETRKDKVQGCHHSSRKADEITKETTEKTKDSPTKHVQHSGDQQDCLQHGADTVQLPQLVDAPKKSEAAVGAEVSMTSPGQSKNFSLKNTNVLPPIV
Procedure: as §1
The residual activity was calculated as: Res.Activity%=100x(Signalofcompound−lowcontrol/highcontrol−lowcontrol)

K562 = settings: read-out: IC50 (K562); cytotoxicity, 24 h
Procedure: as §7

COc1ccnc2[nH]cc(-c3cc(N)nc(N)c3)c12 [meriolin 16]
IC50 [1]: 60 nM
IC50 [2]: 2820 nM
IC50 [3]: 60 nM
Selectivity Score (< 50% residual activity) ([4]; 0.03 µM): 0.140
Selectivity Score (< 50% residual activity) ([4]; 0.3 µM): 0.284
residual kinase activity (PBK; 0.03 µM): 95 % of control
residual kinase activity (PBK; 0.3 µM): 90 % of control
residual kinase activity (TLK2; 0.03 µM): 111 % of control
residual kinase activity (TLK2; 0.3 µM): 91 % of control
IC50 (HL60): 10 nM
IC50 (Jurkat): 30 nM
phosphorylation of RB at p-Ser612 and p-Thr821 ([5]; 0.1 and 1 µM, up to 24 h): no longer phosphorylated
phosphorylation of RB at p-Ser612 and p-Thr821 ([5]; 0.1 and 1 µM, up to 24 h, listed as Meriolin 16): loss of the phosphorylations
phosphorylation of RB at p-Ser249 and p-Thr252 ([5]; up to 24 h): reduced the phosphorylation
IC50 [6]: 60 nM
phosphorylation of RNA polymerase II at Ser2 [7]: total loss of the phosphorylation at Ser2 within 4 h
IC50 (KOPTK1): 10 nM
IC50 (MOLT4): 20 nM
IC50 (HPBALL): 20 nM
residual kinase activity (DYRK4; 0.03 µM): 39 % of control
residual kinase activity (DYRK4; 0.3 µM): 7 % of control
IC50 (K562): 40 nM

c1ccc(CNc2cc(-c3c[nH]c4ncccc34)ccn2)cc1 [meriolin 36]
IC50 [1]: 420 nM
IC50 [2]: 100 nM
IC50 [3]: 90 nM
Selectivity Score (< 50% residual activity) ([4]; 0.3 µM): 0.397
Selectivity Score (< 50% residual activity) ([4]; 3 µM): 0.752
residual kinase activity (PBK; 0.3 µM): 69 % of control
residual kinase activity (PBK; 3 µM): 80 % of control
residual kinase activity (TLK2; 0.3 µM): 149 % of control
residual kinase activity (TLK2; 3 µM): 88 % of control
IC50 (HL60): 1230 nM
IC50 (Jurkat): 1430 nM
phosphorylation of RB at Ser612 ([5]; 0.1 and 1 µM): increase of the phosphorylation
phosphorylation of RB at p-Thr821 ([5]; 0.1 and 1 µM (R547 1 µM), up to 24 h): no notable change
phosphorylation of RB at p-Ser612 and p-Thr821 ([5]; 0.1 and 1 µM, up to 24 h): This effect was not observed
phosphorylation of RB at p-Ser249 and p-Thr252 ([5]; up to 24 h): no effect
IC50 [6]: 170 nM
phosphorylation of RNA polymerase II at Ser2 [7]: less pronounced
IC50 (KOPTK1): 1220 nM
IC50 (MOLT4): 3480 nM
IC50 (HPBALL): 3440 nM
residual kinase activity (DYRK4; 0.3 µM): 66 % of control
residual kinase activity (DYRK4; 3 µM): 22 % of control
IC50 (K562): 940 nM

— paper PMC11167047 (Cell Death Discovery, 2024)
